Among the data in PubChem BioAssay AID2060901 (Molecular Pharmacology Branch, DTP, NCI, 2025) are viability, T/C and IC50 values, retold here.

The structures appear in SMILES notation. Where “and” joins values, the source holds several entries; their conditions need not be identical. Equal values may be shown once.

The experiment has as its system 422866-222-R5-J1-PDC complex spheroids viability. Description: Anticancer human tumor 422866-222-R5-J1-PDC patient-derived pancreatic adenocarcinoma cell line growth inhibition [RAS]. As to conditions: for viability, T/C: stronger effect = lower value. The method, boiled down: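 Tumour cells grown as complex spheroids with HUVEC endothelial cells and mesenchymal stem cells, treated with RAS pathway inhibitor combinations. Each agent spans half-log steps from near clinical Cmax, or 10 microM where Cmax is unknown.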
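Also: spheroids exposed to compounds for 7 days.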
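For viability, T/C in this document: 100% = DMSO vehicle control viability.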

In the case of `CCN1CCN(Cc2ccc(Nc3ncc(F)c(-c4cc(F)c5nc(C)n(C(C)C)c5c4)n3)nc2)CC1`, the viability, T/C (usually the result in the treated group divided by that in the control group, in per cent) is, setting by setting: (compound 0.00316 µM) 93% [middle of 4 runs]; (compound 0.0316 µM) 90.8% [middle of 4 runs]; (compound 0.1 µM) 77.8% [middle of 4 runs]; (compound 0.316 µM) 78% [middle of 4 runs]; (compound 1 µM) 87.2% [middle of 4 runs]. The IC50 (as a rule, the concentration that gives 50% inhibition) (curve of compound) was more than 1000 nM.

For the molecule `CC1(O)CCCC1n1c(=O)c(C(F)F)cc2cnc(NC3CCN(S(C)(=O)=O)CC3)nc21` (stereo not given), the viability, T/C runs as follows: (compound 0.0316 µM) 82.7% [middle of 4 runs]; (compound 0.316 µM) 85.5% [middle of 4 runs]; (compound 1 µM) 91.1% [middle of 4 runs]; (compound 10 µM) 58.4% [middle of 4 runs]. Besides, the IC50 (curve of compound) is 8910 nM and > 10000 nM and 9300 nM.

As to `CC1(O)CCCC1n1c(=O)c(C(F)F)cc2cnc(NC3CCN(S(C)(=O)=O)CC3)nc21` (stereo not given) + CCn1c(-c2cc(N3CCN(C)CC3)cnc2C(C)OC)c2c3cc(ccc31)-c1csc(n1)CC(NC(=O)C1CC1C)C(=O)N1CCCC(N1)C(=O)OCC(C)(C)C2, the IC50 runs as follows: (curve of first compound, second compound 0.000949 µM) less than 31.6 nM; (curve of first compound, second compound 0.003 µM) less than 31.6 nM; (curve of first compound, second compound 0.00949 µM) less than 31.6 nM; (curve of first compound, second compound 0.03 µM) less than 31.6 nM; (curve of first compound, second compound 0.0949 µM) less than 31.6 nM; (curve of first compound, second compound 0.3 µM) less than 31.6 nM. The viability, T/C is 30% (second compound 0.000949 µM, first compound 0.0316 µM); 30.3% (second compound 0.000949 µM, first compound 0.1 µM); 34.5% (second compound 0.000949 µM, first compound 0.316 µM); 34% (second compound 0.000949 µM, first compound 1 µM); 38% (second compound 0.000949 µM, first compound 3.16 µM); 40.2% (second compound 0.000949 µM, first compound 10 µM). Also, the viability, T/C is 27.9% (second compound 0.003 µM, first compound 0.0316 µM); 25.8% (second compound 0.003 µM, first compound 0.1 µM); 26.4% (second compound 0.003 µM, first compound 0.316 µM); 30.1% (second compound 0.003 µM, first compound 1 µM); 32.5% (second compound 0.003 µM, first compound 3.16 µM); 49.2% (second compound 0.003 µM, first compound 10 µM). Besides, the viability, T/C (second compound 0.00949 µM, first compound 0.0316 µM) was 23%; the viability, T/C (second compound 0.00949 µM, first compound 0.1 µM) is 20.7%; the viability, T/C (second compound 0.00949 µM, first compound 0.316 µM) is 22.4%; the viability, T/C (second compound 0.00949 µM, first compound 1 µM) is 23.3%; the viability, T/C (second compound 0.00949 µM, first compound 3.16 µM) was 26%; the viability, T/C (second compound 0.00949 µM, first compound 10 µM) is 28.8%. Further, the viability, T/C (second compound 0.03 µM, first compound 0.0316 µM) is 18.8%; the viability, T/C (second compound 0.03 µM, first compound 0.1 µM) was 19.8%; the viability, T/C (second compound 0.03 µM, first compound 0.316 µM) was 22.8%; the viability, T/C (second compound 0.03 µM, first compound 1 µM) was 20.4%; the viability, T/C (second compound 0.03 µM, first compound 3.16 µM) was 29.8%; the viability, T/C (second compound 0.03 µM, first compound 10 µM) was 44.2%. Besides, the viability, T/C was 19.3% (second compound 0.0949 µM, first compound 0.0316 µM); 22.8% (second compound 0.0949 µM, first compound 0.1 µM); 21.2% (second compound 0.0949 µM, first compound 0.316 µM); 24% (second compound 0.0949 µM, first compound 1 µM); 24.9% (second compound 0.0949 µM, first compound 3.16 µM); 47% (second compound 0.0949 µM, first compound 10 µM). For the same molecule, the viability, T/C runs as follows: (second compound 0.3 µM, first compound 0.0316 µM) 18.9%; (second compound 0.3 µM, first compound 0.1 µM) 21.1%; (second compound 0.3 µM, first compound 0.316 µM) 23.3%; (second compound 0.3 µM, first compound 1 µM) 22.4%; (second compound 0.3 µM, first compound 3.16 µM) 29.6%; (second compound 0.3 µM, first compound 10 µM) 50.5%.

As to `CC(=O)OC12COC1CC(O)C1(C)C(=O)C(O)C3=C(C)C(OC(=O)C(O)C(NC(=O)OC(C)(C)C)c4ccccc4)CC(O)(C(OC(=O)c4ccccc4)C21)C3(C)C` (stereo not given) + C#Cc1c(F)ccc2cc(O)cc(-c3ncc4c(N5CC6CCC(C5)N6)nc(OCC56CCCN5CC(F)C6)nc4c3F)c12, the IC50 reads like this: (curve of first compound, second compound 0.0316 µM) more than 10000 nM; (curve of first compound, second compound 0.1 µM) more than 10000 nM; (curve of first compound, second compound 0.316 µM) 31.6 nM; (curve of first compound, second compound 1 µM) less than 31.6 nM; (curve of first compound, second compound 3.16 µM) less than 31.6 nM; (curve of first compound, second compound 10 µM) less than 31.6 nM. For the same molecule, the viability, T/C is, setting by setting: (second compound 0.0316 µM, first compound 0.0316 µM) 55.1%; (second compound 0.0316 µM, first compound 0.1 µM) 74.1%; (second compound 0.0316 µM, first compound 0.316 µM) 77%; (second compound 0.0316 µM, first compound 1 µM) 83.1%; (second compound 0.0316 µM, first compound 3.16 µM) 76.5%; (second compound 0.0316 µM, first compound 10 µM) 69.7%. The viability, T/C was 70.7% (second compound 0.1 µM, first compound 0.0316 µM); 61.3% (second compound 0.1 µM, first compound 0.1 µM); 56.5% (second compound 0.1 µM, first compound 0.316 µM); 65.5% (second compound 0.1 µM, first compound 1 µM); 64.1% (second compound 0.1 µM, first compound 3.16 µM); 61.7% (second compound 0.1 µM, first compound 10 µM). The viability, T/C is, setting by setting: (second compound 0.316 µM, first compound 0.0316 µM) 55.7%; (second compound 0.316 µM, first compound 0.1 µM) 48.2%; (second compound 0.316 µM, first compound 0.316 µM) 46.6%; (second compound 0.316 µM, first compound 1 µM) 56.8%; (second compound 0.316 µM, first compound 3.16 µM) 67.4%; (second compound 0.316 µM, first compound 10 µM) 55.1%. Moreover, the viability, T/C was 34% (second compound 1 µM, first compound 0.0316 µM); 33.1% (second compound 1 µM, first compound 0.1 µM); 37.5% (second compound 1 µM, first compound 0.316 µM); 36.5% (second compound 1 µM, first compound 1 µM); 41% (second compound 1 µM, first compound 3.16 µM); 35.4% (second compound 1 µM, first compound 10 µM). Besides, the viability, T/C is 21.2% (second compound 3.16 µM, first compound 0.0316 µM); 27.4% (second compound 3.16 µM, first compound 0.1 µM); 29.6% (second compound 3.16 µM, first compound 0.316 µM); 29.6% (second compound 3.16 µM, first compound 1 µM); 32% (second compound 3.16 µM, first compound 3.16 µM); 29.5% (second compound 3.16 µM, first compound 10 µM). Also, the viability, T/C is, setting by setting: (second compound 10 µM, first compound 0.0316 µM) 23.1%; (second compound 10 µM, first compound 0.1 µM) 22.2%; (second compound 10 µM, first compound 0.316 µM) 22.2%; (second compound 10 µM, first compound 1 µM) 20.9%; (second compound 10 µM, first compound 3.16 µM) 24.1%; (second compound 10 µM, first compound 10 µM) 22.9%.
